Measurements taken from the supplement of paper PMC10307832.

Columns and labels:
Assay in all cases: relative viability (nuclei count vs DMSO), 5 days (fraction); higher = more cells survive
17-AAG + Dasatinib = compound: C=CCNC1=C2C[C@@H](C)C[C@H](OC)[C@H](O)[C@@H](C)/C=C(\C)[C@H](OC(N)=O)[C@@H](OC)/C=C\C=C(/C)C(=O)NC(=CC1=O)C2=O [17-AAG] + Cc1nc(Nc2ncc(C(=O)Nc3c(C)cccc3Cl)s2)cc(N2CCN(CCO)CC2)n1 [Dasatinib] (partner 0.075 µM)
How it was run: (§1)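 Nuclei were stained with Hoechst during a one-step fixation (final 0.05% Triton X-100, 1% formaldehyde, 1 ug/ml Hoechst) carried out 5 days after dosing, then counted on 4× images. The cells, lung cancer lines in 1536-well plates, had been dosed by pin tool the day after seeding with one drug alone or a fixed anchor-drug dose plus five library-drug doses (not always all listed) in √10 steps. Relative viability is the nuclei count in treated wells divided by that in vehicle wells, and each value is the median of duplicate plates.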

17-AAG + Pemetrexed = compound: C=CCNC1=C2C[C@@H](C)C[C@H](OC)[C@H](O)[C@@H](C)/C=C(\C)[C@H](OC(N)=O)[C@@H](OC)/C=C\C=C(/C)C(=O)NC(=CC1=O)C2=O [17-AAG] + Nc1nc2[nH]cc(CCc3ccc(C(=O)N[C@@H](CCC(=O)O)C(=O)O)cc3)c2c(=O)[nH]1 [Pemetrexed] (partner 0.2 µM)
How it was run: as §1

17-AAG + Crizotinib = compound: C=CCNC1=C2C[C@@H](C)C[C@H](OC)[C@H](O)[C@@H](C)/C=C(\C)[C@H](OC(N)=O)[C@@H](OC)/C=C\C=C(/C)C(=O)NC(=CC1=O)C2=O [17-AAG] + C[C@@H](Oc1cc(-c2cnn(C3CCNCC3)c2)cnc1N)c1c(Cl)ccc(F)c1Cl [Crizotinib] (partner 1 µM)
How it was run: as §1

17-AAG + Lapatinib = compound: C=CCNC1=C2C[C@@H](C)C[C@H](OC)[C@H](O)[C@@H](C)/C=C(\C)[C@H](OC(N)=O)[C@@H](OC)/C=C\C=C(/C)C(=O)NC(=CC1=O)C2=O [17-AAG] + CS(=O)(=O)CCNCc1ccc(-c2ccc3ncnc(Nc4ccc(OCc5cccc(F)c5)c(Cl)c4)c3c2)o1 [Lapatinib] (partner 2 µM)
How it was run: as §1

Cell Line	relative viability (17-AAG + Dasatinib; first compound 0.00128 µM)	relative viability (17-AAG + Dasatinib; first compound 0.004048 µM)	relative viability (17-AAG + Dasatinib; first compound 0.0128 µM)	relative viability (17-AAG + Dasatinib; first compound 0.04048 µM)	relative viability (17-AAG + Dasatinib; first compound 0.128 µM)	relative viability (17-AAG + Pemetrexed; first compound 0.00128 µM)	relative viability (17-AAG + Pemetrexed; first compound 0.004048 µM)	relative viability (17-AAG + Pemetrexed; first compound 0.0128 µM)	relative viability (17-AAG + Pemetrexed; first compound 0.04048 µM)	relative viability (17-AAG + Pemetrexed; first compound 0.128 µM)	relative viability (17-AAG + Crizotinib; first compound 0.00128 µM)	relative viability (17-AAG + Crizotinib; first compound 0.004048 µM)	relative viability (17-AAG + Crizotinib; first compound 0.0128 µM)	relative viability (17-AAG + Crizotinib; first compound 0.04048 µM)	relative viability (17-AAG + Crizotinib; first compound 0.128 µM)	relative viability (17-AAG + Lapatinib; first compound 0.00128 µM)	relative viability (17-AAG + Lapatinib; first compound 0.004048 µM)	relative viability (17-AAG + Lapatinib; first compound 0.0128 µM)	relative viability (17-AAG + Lapatinib; first compound 0.04048 µM)	relative viability (17-AAG + Lapatinib; first compound 0.128 µM)
NCI-H596	0.587	0.524	0.579	0.587	0.238	0.558	0.542	0.508	0.505	0.337	0.95	0.834	1.03	0.986	0.542	1.19	1.06	1.17	0.996	0.818
EPLC-272H	0.436	0.387	0.205	0.0643	0.0761	0.404	0.365	0.166	0.145	0.0977	0.956	0.872	1.01	0.672	0.338	1.04	1.02	0.929	0.425	0.153
NCI-H2347	0.308	0.248	0.216	0.176	0.118	0.426	0.463	0.517	0.376	0.331	0.747	0.791	0.738	0.486	0.317	0.938	0.96	1.04	0.647	0.432
NCI-H1792	0.761	0.75	0.611	0.493	0.31	0.782	0.378	0.113	0.0425	0.0604	0.997	1.02	0.897	0.848	0.19	0.783	1.02	0.704	0.638	0.115
NCI-H1993	0.548	0.607	0.344	0.387	0.344	0.65	0.649	0.437	0.298	0.323	0.932	0.969	0.899	0.537	0.403	0.767	0.76	0.627	0.45	0.451
NCI-H647	0.193	0.112	0.0468	0.107	0.0735	0.203	0.179	0.102	0.0945	0.0923	1.11	0.755	0.101	0.0977	0.08	1.15	0.386	0.0807	0.0919	0.0634
NCI-H1563	0.493	0.504	0.481	0.42	0.324	0.773	0.898	0.468	0.452	0.414	0.903	0.836	0.562	0.462	0.473	0.878	0.729	0.567	0.606	0.618
HCC-827	0.332	0.39	0.253	–	0.32	0.283	0.264	0.257	–	0.218	0.941	0.91	0.943	–	0.754	0.225	0.216	0.193	–	0.259
NCI-H2228	0.46	0.119	0.0679	0.089	0.0837	0.333	0.158	0.11	0.148	0.12	0.528	0.245	0.176	0.174	0.141	1.08	0.109	0.128	0.161	0.168
NCI-H2170	0.623	0.663	0.275	0.123	0.111	0.256	0.27	0.262	0.152	0.139	1.29	1.19	0.959	0.588	0.203	0.281	0.283	0.24	0.234	0.197
EMC-BAC-2	0.365	0.411	0.28	0.258	0.169	0.504	0.536	0.548	0.448	0.383	0.712	0.753	0.756	0.902	0.281	0.948	0.948	0.907	0.777	0.16
NCI-H23	0.697	0.746	0.389	0.165	0.119	0.564	0.735	0.442	0.202	0.147	0.426	0.5	0.403	0.155	0.123	0.933	0.882	0.233	0.204	0.131
SK-LU-1	0.154	0.0796	0.0621	0.0687	0.0526	0.999	0.63	0.28	0.27	0.19	0.888	0.435	0.242	0.232	0.176	0.812	0.545	0.454	0.216	0.14
NCI-H358	0.216	0.117	0.0644	0.0712	0.0579	0.156	0.19	0.126	0.0833	0.0832	0.752	0.268	0.152	0.118	0.0862	0.504	0.324	0.162	0.137	0.121
LC-2-ad	0.546	0.418	0.18	0.198	0.12	0.298	0.257	0.248	0.219	0.209	0.452	0.448	0.527	0.278	0.171	1.01	0.877	0.548	0.126	0.0893
HCC-15	0.617	0.434	0.0928	0.0907	0.0837	0.23	0.236	0.216	0.144	0.138	0.767	0.758	0.456	0.4	0.132	0.795	0.625	0.351	0.225	0.106
